Results: US9750249B2, “Synergistic paraffinic oil and boscalid fungicides” (priority 2010, dated 2017)

System: dollar spot
Assay: Field trial: dollar spot counts on putting-green plots
Type: in vivo, Sclerotinia homoeocarpa
Conditions: Table 2a; combination even with half the recommended application rate of boscalid
From the text: Studies were established in a completely randomized design with three replications. The treatments included an untreated (fertilizer only) treatment and twenty-three rate/interval combinations of Civitas™ and Emerald™. The label-recommended rates of Civitas™ application to control dollar spot on turfgrass are 8-32 oz/1000 sq.ft. The label-recommended rate of Emerald™ application to control dollar spot on turfgrass is 0.13 oz/1000 sq.ft.
Initial treatments were made on June 16 and continued for 15 weeks (final treatments were made on September 27). […]
Precipitation was such that supplemental irrigation was not required on a regular basis. […] Treatment differences at individual measurement events were evaluated using analysis of variance and Fisher's protected least significant difference (LSD). […]
Applying the approach to identifying synergy as set out in S. R. Colby, “Calculating synergistic and antagonistic responses of herbicide combinations”, Weeds 15, 20-22 (1967), expected efficacy, E, may be expressed as: E=X+Y(100−X)/100, where X is the efficacy, expressed in % of the untreated control, of the first composition (boscalid), and Y is the efficacy, expressed in % of the untreated control, of the second composition (Civitas).

## O=C(Nc1ccccc1-c1ccc(Cl)cc1)c1cccnc1Cl [boscalid, 2-chloro-N-(4′-chloro[1,1′-biphenyl]-2-yl)-nicotinamide]
  sustained elimination of dollar spot: neither boscalid alone nor CIVITAS alone are capable of sustained elimination of dollar spot
